Measurements reported in US20160184274A1, “Methods for inhibiting mesenchymal phenotype after epithelial-to-mesenchymal transition” (Fibrostatin, S.L., priority 2014, published 2016).

Target: T1, multimeric extracellular GPBP (Homo sapiens, UniProt Q9Y5P4)
T1 construct: made in house; host or cells: Sf9 insect cells (baculovirus), purified from culture medium
T1 sequence (Q9Y5P4 1-624): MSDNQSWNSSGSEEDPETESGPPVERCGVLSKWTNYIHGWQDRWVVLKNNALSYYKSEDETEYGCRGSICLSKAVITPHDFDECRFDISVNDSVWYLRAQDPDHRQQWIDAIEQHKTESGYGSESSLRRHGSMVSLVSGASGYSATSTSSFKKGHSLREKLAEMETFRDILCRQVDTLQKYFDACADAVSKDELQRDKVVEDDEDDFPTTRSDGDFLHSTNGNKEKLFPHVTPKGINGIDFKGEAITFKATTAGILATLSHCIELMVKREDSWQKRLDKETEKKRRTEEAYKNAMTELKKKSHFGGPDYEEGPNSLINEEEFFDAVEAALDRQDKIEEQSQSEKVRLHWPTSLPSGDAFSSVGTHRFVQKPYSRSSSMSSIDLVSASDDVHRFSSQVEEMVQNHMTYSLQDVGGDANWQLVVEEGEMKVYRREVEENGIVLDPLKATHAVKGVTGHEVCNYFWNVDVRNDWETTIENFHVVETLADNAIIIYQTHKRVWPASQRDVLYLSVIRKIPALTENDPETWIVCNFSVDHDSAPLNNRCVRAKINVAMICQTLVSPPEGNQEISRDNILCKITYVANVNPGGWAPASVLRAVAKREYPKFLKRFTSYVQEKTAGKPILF
Assay: In vitro phosphorylation assay with multimeric extracellular GPBP
Format: biochemical
Settings: T12 50 μM; autophosphorylation, γ[32P]ATP; FIG. 2
Description: FIG. 2. […] Multimeric extracellular and trimeric intracellular GPBP were purified by affinity chromatography and subsequent gel filtration chromatography, and used for in vitro phosphorylation assays in absence (−) or presence (+) of T12 (50 μM). Reactions were subjected to SDS-PAGE, Western blot onto PVDF membrane and autoradiography, and further protein detected with anti-FLAG primary antibodies. Autoradiography and anti-FLAG® bands were quantified with WCIF IMAGEJ® software, and the normalized kinase activity estimated. Shown are normalized kinase activities. […] Samples were analyzed in triplicate and the data represents the Mean (±SEM) of three independent assays.
FLAG®-tagged GPBP was expressed using Bac-to-Bac® Baculovirus Expression System. […] Finally, purified protein was quantified with Bio-Rad Protein Assay and stored at −20° C. […]
Typically, about 270 ng of purified FLAG®-GPBP protein, either extracellular multimer or intracellular trimer, were incubated in presence or absence of T12 […] in a kinase assay buffer containing 25 mM disodium β-glycerophosphate, 8 mM MgCl2, 0.5 mM EDTA, 0.5 mM EGTA, 1 mM DTT, 5 mM MnCl2 during 10 min at 37° C. […] Then reactions were stopped with SDS-PAGE loading buffer and heat (95° C., 3 min) and analyzed by SDS-PAGE, electro-transference to PVDF membrane (Merck Millipore) and autoradiography. […]

COc1ccc(-c2ccc(-c3cccc(C)c3)c(C)c2)c(CCC(=O)O)c1 [T12, 3-[4″-methoxy-3,2′-dimethyl-(1,1′;4′,1″)terphenyl-2″-yl] propionic acid]
normalized kinase activity of GPBP: targeted extracellular GPBP multimer
